Reference: ChEMBL document CHEMBL1806420, “Design, synthesis and antimycobacterial evaluation of novel 3-substituted-N-aryl-6,7-dimethoxy-3a,4-dihydro-3H-indeno[1,2-c]pyrazole-2-carboxamide analogues” (Bioorg Med Chem Lett, 2011)
Values after ≈ are worked out from the molar mass of the structure shown.

Assays:
[1] = test system: Mycobacterium tuberculosis; test: Antimycobacterial activity against isoniazid-resistant Mycobacterium tuberculosis by agar dilution method; type: functional
[2] = test system: Mycobacterium tuberculosis; test: Ratio of isoniazid MIC to compound MIC for isoniazid-resistant Mycobacterium tuberculosis; type: functional

Compound	MIC [1] [µM]	Ratio [2]
COc1cc2c(cc1OC)C1=NN(C(=O)Nc3ccc(F)c(Cl)c3)C(c3ccccc3)C1C2 (centres undefined)	12.5 (≈ 5.82 µg/mL)	–
COc1ccc(C2C3Cc4cc(OC)c(OC)cc4C3=NN2C(=O)Nc2ccc(F)c(Cl)c2)cc1 (centres undefined)	12.5 (≈ 6.2 µg/mL)	–
COc1cc2c(cc1OC)C1=NN(C(=O)Nc3ccc(F)cc3)C(c3ccncc3)C1C2 (centres undefined)	6.25 (≈ 2.7 µg/mL)	–
COc1cc2c(cc1OC)C1=NN(C(=O)Nc3ccc(F)cc3)C(c3ccccc3Cl)C1C2 (centres undefined)	12.5 (≈ 5.82 µg/mL)	–
COc1cc2c(cc1OC)C1=NN(C(=O)Nc3ccc(F)cc3)C(c3ccc(F)cc3)C1C2 (centres undefined)	0.78 (≈ 0.351 µg/mL)	16
COc1cc2c(cc1OC)C1=NN(C(=O)Nc3ccc(F)cc3)C(c3ccccc3)C1C2 (centres undefined)	10 (≈ 4.31 µg/mL)	–
COc1ccc(C2C3Cc4cc(OC)c(OC)cc4C3=NN2C(=O)Nc2ccc(F)cc2)cc1 (centres undefined)	12.5 (≈ 5.77 µg/mL)	–
COc1cc2c(cc1OC)C1=NN(C(=O)Nc3ccc(Br)cc3)C(c3ccncc3)C1C2 (centres undefined)	10 (≈ 4.93 µg/mL)	–
COc1cc2c(cc1OC)C1=NN(C(=O)Nc3ccc(Br)cc3)C(c3ccccc3Cl)C1C2 (centres undefined)	10 (≈ 5.27 µg/mL)	–
COc1cc2c(cc1OC)C1=NN(C(=O)Nc3ccc(Br)cc3)C(c3ccc(F)cc3)C1C2 (centres undefined)	6.25 (≈ 3.19 µg/mL)	–
COc1cc2c(cc1OC)C1=NN(C(=O)Nc3ccc(Br)cc3)C(c3ccccc3)C1C2 (centres undefined)	> 10	–
COc1cc2c(cc1OC)C1=NN(C(=O)Nc3ccc(F)c(Cl)c3)C(c3ccncc3)C1C2 (centres undefined)	10 (≈ 4.67 µg/mL)	–
COc1cc2c(cc1OC)C1=NN(C(=O)Nc3ccc(F)c(Cl)c3)C(c3ccccc3Cl)C1C2 (centres undefined)	12.5 (≈ 6.25 µg/mL)	–
COc1cc2c(cc1OC)C1=NN(C(=O)Nc3ccc(F)c(Cl)c3)C(c3ccc(F)cc3)C1C2 (centres undefined)	3.12 (≈ 1.51 µg/mL)	4
COc1ccc(C2C3Cc4cc(OC)c(OC)cc4C3=NN2C(=O)Nc2ccc(F)c(Cl)c2)cc1OC (centres undefined)	12.5 (≈ 6.57 µg/mL)	–
NNC(=O)c1ccncc1 [ISONIAZID]	12.5 (≈ 1.71 µg/mL)	–
CO[C@H]1/C=C/O[C@@]2(C)Oc3c(C)c(O)c4c(O)c(c(/C=N/N5CCN(C)CC5)c(O)c4c3C2=O)NC(=O)/C(C)=C\C=C\[C@H](C)[C@H](O)[C@@H](C)[C@@H](O)[C@@H](C)[C@H](OC(C)=O)[C@@H]1C [RIFAMPIN]	3.12 (≈ 2.57 µg/mL)	–
